Test results published in PMC11353420, “Anti-Inflammatory, Cytotoxic, and Genotoxic Effects of Soybean Oligopeptides Conjugated with Mannose” (Foods, 2024).

Assays:
[1] = tested on: Salmonella typhimurium strain TA100; experiment: Salmonella mutation assay (Ames test), TA100; format: cell-based
Description: (§1) Overnight bacterial cultures were mixed with various doses of test compounds with (+S9) or without (−S9) and incubated at 37 °C for 20 min. The top agar was added and then poured onto a plate of minimal glucose agar. The plates were incubated at 37 °C for 48 h. The number of revertant colonies was counted and the mutagenic index (MI) was calculated. 2-aminoanthracene (2-AA) and 2-(2-furyl)-3-(5-nitro-2-furyl)-acrylamide (AF-2) were used as positive mutagens in the presence and absence of S9.

[2] = tested on: Drosophila melanogaster; experiment: Somatic mutation and recombination test (SMART, wing spot test); format: in vivo; set-up: key to Statistical diagnosis vs DI (negative control), Small Single (1–2 Cells) / Statistical diagnosis vs DI (negative control), Large Single (>2 Cells) / Statistical diagnosis vs DI (negative control), Twin / Statistical diagnosis vs DI (negative control), Total Spots: + = positive; − = negative; i = inconclusive; settings: for Frequency of Mutant Spots per Individual (Number of Spots), Large Single (>2 Cells) / Frequency of Mutant Spots per Individual (Number of Spots), Small Single (1–2 Cells) / Frequency of Mutant Spots per Individual (Number of Spots), Total Spots / Frequency of Mutant Spots per Individual (Number of Spots), Twin: 40 wings
Description: In brief, two strains of fruit flies, including mwh/mwh and ORR; flr^3/In(3LR) TM3, ri p^p sep l(3)89Aa bx^34e e Bd^S, were mated. […] After hatching, forty round wings were collected and analyzed for mutant spots (single, large, and twin spots). The statistical analysis for the wing spot test was performed as previously described. The Drosophila study was approved by the Institute of Nutrition—Mahidol University Institutional Animal Care and Use Committee (INMU-IACUC) (COA. No. INMU-IACUC 2023/01).

[3] = tested on: HEK293 (Human embryonic kidney cell line); experiment: SRB cytotoxicity assay, HEK293; format: cell-based
Description: (§2) HEK293 (Human embryonic kidney cell line), HepG2 (Human liver carcinoma cell line), LX-2 (Human hepatic stellate cell line), and 3T3-L1 (Murine preadipocyte cell line) cells were obtained from the American Type Culture Collection (ATCC), Bethesda, MD, USA.

[4] = SRB cytotoxicity assay, HEK293; format: cell-based, human; settings: human, HEK293 cells; HEK293, 48 h, SRB
Description: as §2

[5] = tested on: IL-6; experiment: IL-6 secretion by ELISA in LPS-treated RAW 264.7; format: cell-based, murine; settings: 100, 200, 400 µg/mL, LPS 1 µg/mL 24 h
Description: RAW 264.7 macrophage cells were pretreated with various concentrations of the oligopeptide and its conjugated forms (100, 200, 400 µg/mL) for an hour and then incubated with LPS (1 µg/mL) for further 24 h at 37 °C in a 5% CO2 humidified atmosphere. Then, a sandwich Enzyme Link Immuno-Sorbent Assay was carried out in accordance with the manufacturer’s protocols (BioLegend ELISA MAXTM Deluxe Set, San Diego, CA, USA) to measure TNF-α or IL-6 protein levels in the condition medium.

[6] = tested on: LX-2 (Human hepatic stellate cell line); experiment: SRB cytotoxicity assay, LX-2; format: cell-based
Description: as §2

[7] = SRB cytotoxicity assay, LX-2; format: cell-based, human; settings: human, LX-2 cells; LX-2, 48 h, SRB
Description: as §2

[8] = tested on: Salmonella typhimurium strain TA98; experiment: Salmonella mutation assay (Ames test), TA98; format: cell-based
Description: as §1

[9] = tested on: NO production in LPS-treated RAW 264.7 macrophages; experiment: LPS-induced nitric oxide (NO)/nitrite production, Griess reaction; format: cell-based, murine; settings: 100, 200, 400 µg/mL pretreatment 1 h, LPS 1 µg/mL 24 h
Description: To screen the anti-inflammation ability of the compounds, the nitrite level in the cultured medium of the treated cells was determined by the Griess reaction. RAW 264.7 macrophage cells were pretreated with various concentrations of the oligopeptide and its conjugated forms (100, 200, 400 µg/mL) for an hour and then incubated with LPS (1 µg/mL) for further 24 h at 37 °C in a 5% CO2 humidified atmosphere. The culture supernatant was collected for the Griess reagent assay as previous described. The NO production was calculated by comparison with LPS-treated controls.

With OC[C@H]1OC(O)[C@@H](O)[C@@H](O)[C@@H]1O (stereo partly drawn) [Man, D-mannose] the “His^+ Revertant Colonies per Plate” value ([1]; TA100, +S9, 0.04 mg per plate) was 127.5 ± 2.5, the “His^+ Revertant Colonies per Plate” value ([1]; TA100, +S9, 0.2 mg per plate) was 140.3 ± 2.3 and the “His^+ Revertant Colonies per Plate” value ([1]; TA100, +S9, 1 mg per plate) was 139.0 ± 0.7. For the same compound, the “His^+ Revertant Colonies per Plate” value ([1]; TA100, +S9, 5 mg per plate) was 138.5 ± 4.2, the mutagenicity ([1]; TA100, presence and absence of the S9 mix) was “did not cause any mutagenicity” and the “His^+ Revertant Colonies per Plate” value ([1]; TA100, −S9, 0.04 mg per plate) was 135.2 ± 5.2. The “His^+ Revertant Colonies per Plate” value ([1]; TA100, −S9, 0.2 mg per plate) was 137.5 ± 4.5, the “His^+ Revertant Colonies per Plate” value ([1]; TA100, −S9, 1 mg per plate) was 135.2 ± 4.5 and the “His^+ Revertant Colonies per Plate” value ([1]; TA100, −S9, 5 mg per plate) was 129.7 ± 4.7. The “Statistical diagnosis vs DI (negative control), Large Single (>2 Cells)” value (“Statistical diagnosis vs DI … (>2 Cells)” for short) ([2]; 62.5 µg/mL) was “i”, the “Statistical diagnosis vs DI (negative control), Small Single (1–2 Cells)” value (shortened to “Statistical diagnosis vs DI … (1–2 Cells)”) ([2]; 62.5 µg/mL) was “−” and the “Statistical diagnosis vs DI (negative control), Twin” value (“Statistical diagnosis vs DI … Twin” for short) ([2]; 62.5 µg/mL) was “−”. For the same compound, the “Frequency of Mutant Spots per Individual (Number of Spots), Large Single (>2 Cells)” value ([2]; 62.5 µg/mL) was 0.03 (1), the “Frequency of Mutant Spots per Individual (Number of Spots), Small Single (1–2 Cells)” value ([2]; 62.5 µg/mL) was 0.40 (16) and the “Frequency of Mutant Spots per Individual (Number of Spots), Total Spots” value ([2]; 62.5 µg/mL) was 0.43 (17). For the same compound, the “Frequency of Mutant Spots per Individual (Number of Spots), Twin” value ([2]; 62.5 µg/mL) was 0.00 (0), the “Statistical diagnosis vs DI … (>2 Cells)” value ([2]; 125 µg/mL) was “i” and the “Statistical diagnosis vs DI … (1–2 Cells)” value ([2]; 125 µg/mL) was “−”. The “Statistical diagnosis vs DI (negative control), Total Spots” value (shortened to “Statistical diagnosis vs DI … Total Spots”) ([2]; 125 µg/mL) was “−”, the “Statistical diagnosis vs DI … Twin” value ([2]; 125 µg/mL) was “−” and the “Frequency of Mutant Spots per Individual (Number of Spots), Large Single (>2 Cells)” value ([2]; 125 µg/mL) was 0.03 (1). The “Frequency of Mutant Spots per Individual (Number of Spots), Small Single (1–2 Cells)” value ([2]; 125 µg/mL) was 0.50 (20), the “Frequency of Mutant Spots per Individual (Number of Spots), Total Spots” value ([2]; 125 µg/mL) was 0.53 (21) and the “Frequency of Mutant Spots per Individual (Number of Spots), Twin” value ([2]; 125 µg/mL) was 0.00 (0). The “Statistical diagnosis vs DI … (>2 Cells)” value ([2]; 250 µg/mL) was “i”, the “Statistical diagnosis vs DI … (1–2 Cells)” value ([2]; 250 µg/mL) was “−” and the “Statistical diagnosis vs DI … Total Spots” value ([2]; 250 µg/mL) was “−”. The “Statistical diagnosis vs DI … Twin” value ([2]; 250 µg/mL) was “−”, the “Frequency of Mutant Spots per Individual (Number of Spots), Large Single (>2 Cells)” value ([2]; 250 µg/mL) was 0.03 (1) and the “Frequency of Mutant Spots per Individual (Number of Spots), Small Single (1–2 Cells)” value ([2]; 250 µg/mL) was 0.43 (17). For the same compound, the “Frequency of Mutant Spots per Individual (Number of Spots), Total Spots” value ([2]; 250 µg/mL) was 0.45 (18), the “Frequency of Mutant Spots per Individual (Number of Spots), Twin” value ([2]; 250 µg/mL) was 0.00 (0) and the “Statistical diagnosis vs DI … (>2 Cells)” value ([2]; 500 µg/mL) was “i”. The “Statistical diagnosis vs DI … (1–2 Cells)” value ([2]; 500 µg/mL) was “−”, the “Statistical diagnosis vs DI … Total Spots” value ([2]; 500 µg/mL) was “−” and the “Statistical diagnosis vs DI … Twin” value ([2]; 500 µg/mL) was “−”. For the same compound, the “Frequency of Mutant Spots per Individual (Number of Spots), Large Single (>2 Cells)” value ([2]; 500 µg/mL) was 0.03 (1), the “Frequency of Mutant Spots per Individual (Number of Spots), Small Single (1–2 Cells)” value ([2]; 500 µg/mL) was 0.25 (10) and the “Frequency of Mutant Spots per Individual (Number of Spots), Total Spots” value ([2]; 500 µg/mL) was 0.28 (11). For the same compound, the “Frequency of Mutant Spots per Individual (Number of Spots), Twin” value ([2]; 500 µg/mL) was 0.00 (0), the “Statistical diagnosis vs DI … (>2 Cells)” value ([2]; 1000 µg/mL) was “i” and the “Statistical diagnosis vs DI … (1–2 Cells)” value ([2]; 1000 µg/mL) was “−”. The “Statistical diagnosis vs DI … Total Spots” value ([2]; 1000 µg/mL) was “−”, the “Statistical diagnosis vs DI … Twin” value ([2]; 1000 µg/mL) was “−” and the “Frequency of Mutant Spots per Individual (Number of Spots), Large Single (>2 Cells)” value ([2]; 1000 µg/mL) was 0.03 (1). The “Frequency of Mutant Spots per Individual (Number of Spots), Small Single (1–2 Cells)” value ([2]; 1000 µg/mL) was 0.25 (10), the “Frequency of Mutant Spots per Individual (Number of Spots), Total Spots” value ([2]; 1000 µg/mL) was 0.28 (11) and the “Frequency of Mutant Spots per Individual (Number of Spots), Twin” value ([2]; 1000 µg/mL) was 0.00 (0). The “Statistical diagnosis vs DI … (>2 Cells)” value ([2]; 2000 µg/mL) was “−”, the “Statistical diagnosis vs DI … (1–2 Cells)” value ([2]; 2000 µg/mL) was “−” and the “Statistical diagnosis vs DI … Total Spots” value ([2]; 2000 µg/mL) was “−”. The “Statistical diagnosis vs DI … Twin” value ([2]; 2000 µg/mL) was “−”, the “Frequency of Mutant Spots per Individual (Number of Spots), Large Single (>2 Cells)” value ([2]; 2000 µg/mL) was 0.00 (0) and the “Frequency of Mutant Spots per Individual (Number of Spots), Small Single (1–2 Cells)” value ([2]; 2000 µg/mL) was 0.23 (9). For the same compound, the “Frequency of Mutant Spots per Individual (Number of Spots), Total Spots” value ([2]; 2000 µg/mL) was 0.23 (9), the “Frequency of Mutant Spots per Individual (Number of Spots), Twin” value ([2]; 2000 µg/mL) was 0.00 (0) and the “Statistical diagnosis vs DI … (>2 Cells)” value ([2]; 5000 µg/mL) was “−”. The “Statistical diagnosis vs DI … (1–2 Cells)” value ([2]; 5000 µg/mL) was “−”, the “Statistical diagnosis vs DI … Total Spots” value ([2]; 5000 µg/mL) was “−” and the “Statistical diagnosis vs DI … Twin” value ([2]; 5000 µg/mL) was “−”. For the same compound, the “Frequency of Mutant Spots per Individual (Number of Spots), Large Single (>2 Cells)” value ([2]; 5000 µg/mL) was 0.00 (0), the “Frequency of Mutant Spots per Individual (Number of Spots), Small Single (1–2 Cells)” value ([2]; 5000 µg/mL) was 0.18 (7) and the “Frequency of Mutant Spots per Individual (Number of Spots), Total Spots” value ([2]; 5000 µg/mL) was 0.18 (7). For the same compound, the “Frequency of Mutant Spots per Individual (Number of Spots), Twin” value ([2]; 5000 µg/mL) was 0.00 (0), the “DNA mutations / genome safety” value ([2]; all doses, up to 5000 µg/mL) was “did not trigger DNA mutations” and the toxicity to cells ([3]; HEK293, up to 1000 µg/mL, 48 h) was “not toxic”. The IC50 ([3]; Homo sapiens, HEK293, 48 h, SRB, read-out: IC50) was > 1000 µg/mL, the IC20 at 48 h [4] was > 1000 µg/mL and the “effect on level of IL-6” value [5] was “did not alter”. The IC50 ([6]; Homo sapiens, LX-2, 48 h, SRB, read-out: IC50) was > 1000 µg/mL, the toxicity to cells ([6]; LX-2, up to 1000 µg/mL, 48 h) was “not toxic” and the IC20 at 48 h [7] was > 1000 µg/mL. The “His^+ Revertant Colonies per Plate” value ([8]; TA98, +S9, 0.04 mg per plate) was 37.7 ± 5.7, the “His^+ Revertant Colonies per Plate” value ([8]; TA98, +S9, 0.2 mg per plate) was 37.8 ± 3.8 and the “His^+ Revertant Colonies per Plate” value ([8]; TA98, +S9, 1 mg per plate) was 36.5 ± 7.5. For the same compound, the “His^+ Revertant Colonies per Plate” value ([8]; TA98, +S9, 5 mg per plate) was 38.5 ± 7.8, the mutagenicity ([8]; TA98, presence and absence of the S9 mix) was “did not cause any mutagenicity” and the “His^+ Revertant Colonies per Plate” value ([8]; TA98, −S9, 0.04 mg per plate) was 30.5 ± 2.5. The “His^+ Revertant Colonies per Plate” value ([8]; TA98, −S9, 0.2 mg per plate) was 30.8 ± 4.8, the “His^+ Revertant Colonies per Plate” value ([8]; TA98, −S9, 1 mg per plate) was 27.8 ± 6.5 and the “His^+ Revertant Colonies per Plate” value ([8]; TA98, −S9, 5 mg per plate) was 28.7 ± 6.0. The “inhibition of LPS-induced NO production” value [9] was “did not inhibit”.
